Data as given in patent US20160106708A1, “USE OF ANTIOXIDANTS FOR THE TREATMENT OF COGNITIVE AND BEHAVIOURAL DISORDERS IN INDIVIDUALS WITH FRAGILE X SYNDROME” (Servicio Andaluz de Salud, priority 2010, published 2016).

Key:
[1] = test system: patients with Fragile X syndrome; details: cited from earlier work; for Efficacy on symptoms in patients with Fragile X Syndrome: published trials
FMR1-KO mice [2] = test: Open field, locomotive activity (hyperactivity); type: in vivo, mouse; details: chronic treatment, 15-minute period, treated vs FMR1-KO without treatment, saline control and Tianeptine (tianeptine group: FMR1-KO vs WT)
Text: FIG. 1. Open-field distance travelled by the mice in a 15-minute period of time for the different treatments.
In all the groups of WT mice, locomotion was maintained without significant variations, about 4000 cm of distance travelled (FIG. 1); this test was used to check the mice's hyperactivity.

FMR1-KO mice [3] = test: Oxidised glutathione (GSSG, % of GSH) in brain extract; type: in vivo, mouse; details: vs saline and naive controls
Text: FIG. 6. Percentage of GSSG with respect to GSH in mouse brain extract. FMR1-KO (n=8): black bars and WT (n=9): white bars. *p<0.05 FMR1-KO vs. WT. # p<0.05 FMR1-KO vs. FMR1-KO. † p<0.05 WT vs. WT.

FMR1-KO mice [4] = test: Raised cross-shaped maze (anxiety); type: in vivo, mouse; details: chronic treatment, 5-minute period, treated vs FMR1-KO without treatment, saline control and Tianeptine (Tianeptine group: FMR1-KO vs WT)
Text: FIG. 2. Percentage permanence time in the open arm of the raised cross-shaped maze in a 5-minute period of time for the different treatments.
This test is used to determine the anxiety of the animal model, under baseline and treated conditions.

FMR1-KO mice [5] = test: Level of lipid peroxidation (TBARS) in cerebral membranes; type: in vivo, mouse; details: FMR1-KO vs WT under treatment; tianeptine: both genotypes vs saline control
Text: FIG. 4. Concentration of TBARS in mouse cerebral membranes (nmol/mg protein).

FMR1-KO mice [6] = test: Reduced glutathione (GSH) in brain extract; type: in vivo, mouse; details: vs saline control
Text: FIG. 5. Concentration of GSH in mouse brain extract (μmol/g protein). FMR1-KO (n=8): black bars and WT (n=9): white bars. *p<0.05 FMR1-KO vs. WT. # p<0.05 FMR1-KO vs. FMR1-KO. † p<0.05 WT vs. WT.

Fmr1-KO mouse = details: chronic treatment; cited from earlier work
FMR1-KO mice [7] = test: Measurement of corticosterone in serum; type: in vivo, mouse; details: FMR1-KO mice vs WT controls under the same treatment
Text: FIG. 3. Concentration of corticosterone in mouse serum (ng/ml).

children with Autism = details: 18 children with Autism; cited from earlier work
[8] = human; cited from earlier work
[9] = test system: transgenic mouse model for Alzheimer's disease; details: cited from earlier work
[10] = test system: patients with Alzheimer's disease; details: cited from earlier work
[11] = test system: cytotoxicity induced by L-buthionine-sulfoximine (BSO); details: BSO causes decrease in intracellular glutathione; cited from earlier work

Structure (SMILES): COC(=O)N1CC[C@@H]2[C@H]1CCC[C@@]2(O)C#Cc1cccc(C)c1 [AFQ056]
- Efficacy on symptoms in patients with Fragile X Syndrome [1]: demonstrates its effectiveness on the behavioural and learning problems

Structure (SMILES): CN1CC(=O)NC1=NC(=O)Nc1cccc(Cl)c1 [Fenoban]
- Efficacy on symptoms in patients with Fragile X Syndrome [1]: efficacy

Structure (SMILES): CC(=O)O[C@H](CC(=O)[O-])C[N+](C)(C)C [L-acetylcarnitine]
- Efficacy on symptoms in patients with Fragile X Syndrome [1]: efficacy in reducing hyperactivity and improving social relations

Structure (SMILES): COc1ccc2[nH]cc(CCNC(C)=O)c2c1 [Melatonin]
- Open-field total distance travelled (FMR1-KO mice [2]): lower (p<0.05)
- Percentage of GSSG with respect to GSH in brain extract (FMR1-KO mice [3]): normalised the values of GSSG
- Efficacy on symptoms in patients with Fragile X Syndrome [1]: reduce the sleep problems
- Percentage permanence time in the open arm of the raised cross-shaped maze (FMR1-KO mice [4]): lower (p<0.05)
- Levels of TBARS in cerebral membranes (FMR1-KO mice [5]): normalises the levels of TBARS
- GSH in brain extract (FMR1-KO mice [6]): higher values of GSH
- Effect on parameters characteristic of the syndrome (hyperactivity, anxiety disorder, cognitive deficit) (Fmr1-KO mouse): normalising several parameters characteristic of the syndrome
- Concentration of corticosterone in serum (FMR1-KO mice [7]): maintained the same levels of corticosterone as compared to the WT controls

Structure (SMILES): CC12CC3CC(C)(C1)CC(N)(C3)C2 [Nemantine]
- Patients showing symptoms of improvement ([1]; of 6 affected patients): 4

Structure (SMILES): CN1c2ccccc2C(NCCCCCCC(=O)O)c2ccc(Cl)cc2S1(=O)=O (centres unmarked) [Tianeptine]
- Open-field total distance travelled (FMR1-KO mice [2]): greater total travelled distance

Structure (SMILES): O=C1O[C@H]([C@@H](O)CO)C(O)=C1O [Vitamin C, Ascorbic Acid]
- Effect on symptoms of Autism (children with Autism): significant decrease of some symptoms
- Half-life [8]: 16 days

Structure (SMILES): Cc1c(C)c2c(c(C)c1O)CC[C@@](C)(CCC[C@H](C)CCC[C@H](C)CCCC(C)C)O2 [Vitamin E, alpha-Tocopherol]
- Open-field total distance travelled (FMR1-KO mice [2]): lower (p<0.05)
- Lipid peroxidation and amyloid deposition [9]: reduced lipid peroxidation and amyloid deposition
- Percentage of GSSG with respect to GSH in brain extract (FMR1-KO mice [3]): normalised the values of GSSG
- Percentage permanence time in the open arm of the raised cross-shaped maze (FMR1-KO mice [4]): lower (p<0.05)
- Levels of TBARS in cerebral membranes (FMR1-KO mice [5]): normalises the levels of TBARS
- GSH in brain extract (FMR1-KO mice [6]): higher values of GSH
- Effect on parameters characteristic of the syndrome (hyperactivity, anxiety disorder, cognitive deficit) (Fmr1-KO mouse): normalising several parameters characteristic of the syndrome
- Concentration of corticosterone in serum (FMR1-KO mice [7]): maintained the same levels of corticosterone as compared to the WT controls
- Effect on mental deterioration [10]: capable of delaying mental deterioration
- Protection against BSO-induced cytotoxicity [11]: significant protection

Structure (SMILES): COc1cc2c(cc1OC)C(=O)C(CC1CCN(Cc3ccccc3)CC1)C2 (centres unmarked) [donezepil]
- Efficacy on symptoms in patients with Fragile X Syndrome [1]: significantly improves cognitive and behavioural functions
